Literature values as cited in patent publication US7858659B2, “Redox therapy for tumors” (priority 2003, dated 2010).
≈ marks a conversion by molar mass, not a printed value. Where two headings read alike, the source gives them in different places.

Experiments:
[1] = system: prostate cancer cell lines; settings: green tea phenols; cited from earlier work
adults = settings: cited from earlier work
rats = settings: cited from earlier work
[2] = Example 4 table; cited from earlier work
[3] = cited from earlier work; for Solubility: Example 4 table
A-427 and A-172 = settings: various cancer cell lines, such as A-427 and A-172; cited from earlier work
[4] = system: normal human bronchial fibroblasts and human bronchial epithelial cells; settings: cited from earlier work
malignant cells [5] = settings: Table 1; BSO: [Kito]; cited from earlier work
malignant cells [6] = settings: cited from earlier work; for Effective Concentration in vitro: Example 4 table; for Concentration: Table 1
[7] = target: T1, glutathione reductase (GR) (Mus musculus, UniProt P47791); settings: Cohen 1988, cited from earlier work
T1 construct: recovery of enzyme activity in exponentially growing murine leukemia (L1210) cells treated with 1,3-bis(2-chloroethyl)-1-nitrosourea
T1 sequence (P47791 27-500): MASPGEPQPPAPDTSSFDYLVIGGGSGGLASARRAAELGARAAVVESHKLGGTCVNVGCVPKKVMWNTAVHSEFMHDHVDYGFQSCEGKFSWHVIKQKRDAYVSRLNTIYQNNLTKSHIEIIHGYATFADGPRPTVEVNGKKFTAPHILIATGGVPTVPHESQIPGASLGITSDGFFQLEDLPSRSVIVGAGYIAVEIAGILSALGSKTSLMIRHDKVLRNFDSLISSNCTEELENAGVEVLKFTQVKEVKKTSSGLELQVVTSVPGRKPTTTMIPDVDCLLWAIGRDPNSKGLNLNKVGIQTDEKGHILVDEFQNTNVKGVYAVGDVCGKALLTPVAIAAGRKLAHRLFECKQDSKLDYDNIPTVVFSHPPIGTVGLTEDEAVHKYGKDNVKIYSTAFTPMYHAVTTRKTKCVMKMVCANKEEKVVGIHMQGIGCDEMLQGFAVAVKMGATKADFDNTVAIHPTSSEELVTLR

mice/rats = settings: cited from earlier work
[8] = system: Jurkat T-cell leukemia cells; settings: Sen et al. 1999; cited from earlier work
normal lymphocytes = settings: Sen et al. 1999; cited from earlier work
malignant cells [9] = settings: BSO by itself; Dai et al. 1999; cited from earlier work
neuroblastoma cells = settings: Nicole et al. 1998; cited from earlier work
mice = settings: mouse, in vivo; cited from earlier work
U937 cancer cells = settings: Lizard et al. 1998; cited from earlier work

## O=C(O[C@@H]1Cc2c(O)cc(O)cc2O[C@@H]1c1cc(O)c(O)c(O)c1)c1cc(O)c(O)c(O)c1 [(−)-epigallocatechin-3-gallate]
[1]
  apoptosis: induced apoptosis

## CCN(CC)C(=S)SSC(=S)N(CC)CC [Disulfiram]
adults; adults
  Toxicity: 3 g (adults)
rats
  LD50 [Merck]: 8600 mg/kg (rats)
[2]
  Toxicity: 10,000 microM
[3]
  Solubility: 2,000 microM
[3]; Table 1
  Solubility [Merck]: 0.02 g/100 ml

## C=CC=O [acrolein]
A-427 and A-172
  cytotoxicity: induced cytotoxicity
[4]
  toxicity to normal cells: highly toxic

## O=NN(CCCl)C(=O)NCCCl [Carmustine, N,N′-bis(2-chloroethyl)-N-nitrosourea]
Malignant cells [5]
  apoptosis: Induction
Malignant cells [6]
  Effective Concentration in vitro: 0.05 µM
Malignant cells [6]; [Cohen & Duval]
  Concentration: 50 ng/mL
[7]; 12 hours, de novo synthesis
  activity of GR restored: 50%
[7]; 24 hours, de novo synthesis
  GR restored: 70%
[7]; only carmustine present
  concentration with which GR is inhibited: 10 µM
[7]; with 10 μM
  time within which GR is inhibited: ½
[3]
  Solubility: 40 µM (≈ 8.56 µg/mL)
[3]; Table 1
  Solubility [Merck]: 4 mg/L (≈ 18.7 µM)
mice/rats
  LD50 [Merck]: 25 to 30 mg/kg

## O=C(O)CCCCC1CCSS1 (stereo not drawn) [α-lipoic acid]
[8]
  apoptosis: underwent apoptosis
Normal lymphocytes
  apoptosis: did not

## CCCCS(=N)(=O)CCC(N)C(=O)O (stereo not drawn) [BSO, buthionine sulfoximine]
Malignant cells [5]
  apoptosis: Enhancement [Kito]
Malignant cells [6]
  Effective Concentration in vitro: 100 µM
Malignant cells [6]; disulfiram: [Cen]
  Concentration: 10 to 25 µM
adults; [Bailey]
  Toxicity: nausea/vomiting: occasional
[2]
  Toxicity: 10,000 microM
Malignant cells [9]
  apoptosis: did not induce significant apoptosis
  decrease in [GSH] in the cell: 70%
Neuroblastoma cells
  apoptosis: induced apoptosis
  decrease of GSH content: 98%
[3]
  Solubility: soluble
[3]; Table 1, in words
  Solubility [Merck]: Soluble
mice
  Toxicity: 9.6 g/kg (mice) →

## CC(C)CCC[C@@H](C)[C@H]1CC[C@H]2[C@@H]3C(=O)C=C4C[C@@H](O)CC[C@]4(C)[C@H]3CC[C@]12C [7-ketocholesterol]
U937 cancer cells
  apoptosis: induced apoptosis
